This passage reports EC50 and AC50 results from patent US20250382274A1, “COMPOSITIONS AND METHODS FOR THE TREATMENT OF PARKINSON'S AND GAUCHER DISEASE” (CHILDREN'S HOSPITAL MEDICAL CENTER, priority 2024, published 2025).

Where a chain is given by its changes, count along the chain named.

The target of experiment [1] is T1, GCase in healthy human fibroblasts (Homo sapiens, UniProt P04062).
T1 construct: Healthy human fibroblasts (GCase cell); endogenous in cells; host or cells: healthy human fibroblasts
T1 sequence (P04062 40-536): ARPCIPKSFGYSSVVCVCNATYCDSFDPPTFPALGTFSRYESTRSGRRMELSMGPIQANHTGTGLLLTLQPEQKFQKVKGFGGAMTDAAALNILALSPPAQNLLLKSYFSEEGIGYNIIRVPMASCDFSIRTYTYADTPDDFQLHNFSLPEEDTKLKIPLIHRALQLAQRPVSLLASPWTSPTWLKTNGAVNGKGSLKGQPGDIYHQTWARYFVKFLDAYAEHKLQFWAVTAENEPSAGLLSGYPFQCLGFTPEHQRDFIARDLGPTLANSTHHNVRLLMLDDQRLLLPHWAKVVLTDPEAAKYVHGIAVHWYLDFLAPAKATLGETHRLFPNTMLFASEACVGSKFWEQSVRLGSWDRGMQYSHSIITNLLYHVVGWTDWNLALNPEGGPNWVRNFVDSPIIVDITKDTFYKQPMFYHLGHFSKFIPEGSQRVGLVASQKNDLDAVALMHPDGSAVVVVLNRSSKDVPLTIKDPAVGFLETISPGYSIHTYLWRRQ
The experiment can be described thus: EC50 cell-based assay for GCase, healthy human fibroblasts (GCase cell). Particulars: 5 days compound treatment (0-20 μM). Here is the method: (§1) In cell assays, GCase activity measurements were carried out on harvested cell pellets on the 5th day of Compound treatment. Healthy human fibroblasts (GCase cell), mutant N370/ΔGG (GCase N370S) or L444P/L444P (GCase L444P) were incubated with the Compound (0-20 μM) for 5 days with 15% fetal bovine serum (FBS) in Dulbecco's Modified Eagle Medium (DMEM) in 100 mm culture dishes. Fresh Medium with Compound were replaced every other day. On the 5th day of Compound treatment, harvested cell pellets were lysed with 1% Na-taurocholate (Tc) and 1% Triton X-100 (Tx), and mixed with the reaction buffer which contained 0.025 mM Citric phosphate buffer (pH 5.6), 0.25% Tc/Tx and 4 mM 4-MuGlu, then incubated at 37° C. for 1 hour. EC50 represents the concentration of a Compound that produces 50% of its maximal response in the cell-based GCase activity assay.
(§2) GCase activities were determined fluorometrically with 4-MuGlu. The relative fluorescence unit (RFU) of 4-MuGlu standard curve is generated with the plate reader (M5, Molecular Devise) as 1 n mole=56500 RFU. The human mutant Gaucher fibroblasts were purchased from Coriell Institute (Camden, NJ): N370/ΔGG (Cat #: GM00852) and L444P/L444P (cat #: GM00877)

Experiment [2] deals with T2, GCase N370S (N370/ΔGG human mutant Gaucher fibroblasts) (Homo sapiens, UniProt P04062, N409S).
T2 construct: The human mutant Gaucher fibroblasts were purchased from Coriell Institute; host or cells: human Gaucher fibroblasts N370/ΔGG
T2 sequence (P04062 40-536 N409S): T1 sequence (P04062 40-536) with N370S
In words: EC50 cell-based assay for GCase, mutant N370/ΔGG fibroblasts (GCase N370S). Particulars: 5 days compound treatment (0-20 μM). On the procedure: as §1, §2

Experiment [3] has as its target T3, GCase (purified enzyme, Velaglucerase alfa, VPRIV) (Homo sapiens, UniProt P04062).
T3 construct: purchased Shire Human Genetic Therapies, Cambridge, MA
T3 sequence (P04062 40-536): T1 sequence (P04062 40-536)
The experiment can be described thus: GCase AC50 enzyme activity assay. Type of experiment: biochemical. The note with it: pH 5.6, 4-MuGlu substrate, compounds 0-40 μM. On the procedure:
An in vitro enzyme assay was performed through a dose response curve of Compounds (0-40 μM) with purified enzyme (Velaglucerase alfa, VPRIV®, Shire Human Genetic Therapies, Cambridge, MA) in citric phosphate [0.025 mM] buffer (pH 5.6) where 4-MuGlu [4 mM] was the substrate. Compounds were pre-incubated with the enzyme for 40 minutes at room temperature prior to substrate addition, and then incubated at 37° C. for 1 hour. AC50 represents the concentration of a Compound that produces 50% of its maximal response in the in vitro GCase activity assay.
as §2

In the case of `O=C(COc1ccccc1C(=O)NCC1CCO1)Nc1ccc(Br)cc1` (stereo not shown) [Compound 2, 2-((4-bromophenylcarbamoyl)methoxy)-N-((oxetan-2-yl)methyl)benzamide], the figures for the EC50 in experiment [1] and in experiment [2] were 10 to 100 µM and less than 10 µM, respectively. The same molecule showed an AC50 in experiment [3] of less than 10 µM.
As to `O=C(Nc1ccc(Br)cc1)c1nc2cccc(C(=O)NCC3CCCO3)c2o1` (stereo not shown) [Compound 4, N2-(4-bromophenyl)-N7-((tetrahydrofuran-2-yl)methyl)benzo[d]oxazole-2,7-dicarboxamide], the EC50 in experiment [1] and in experiment [2] was less than 10 µM each time. Besides, the AC50 in experiment [3] was less than 10 µM.
As to `COc1ccc(NC(=O)C(C)(C)Oc2ccccc2C(=O)NCC2CCCO2)cc1` (stereo not shown) [Compound 32, 2-(2-(4-methoxyphenylcarbamoyl)propan-2-yloxy)-N-((tetrahydrofuran-2-yl)methyl)benzamide], the EC50 is less than 10 µM in experiment [1] and 10 to 100 µM in experiment [2]. In experiment [3], this molecule came in with an AC50 of less than 10 µM.
Take `COc1ccc(NC(=O)C(C)(C)Oc2ccc(F)cc2C(=O)NCC2CCCO2)cc1` (stereo not shown) [Compound 33, 2-(2-(4-methoxyphenylcarbamoyl)propan-2-yloxy)-5-fluoro-N-((tetrahydrofuran-2-yl)methyl)benzamide]: the EC50 in experiment [1] was less than 10 µM. This molecule had an AC50 in experiment [3] of less than 10 µM.
In turn, `CN(C)Cc1ccc(NC(=O)C(C)(C)Oc2ccccc2C(=O)NCC2CCCO2)cc1` (stereo not shown) [Compound 34, 2-(2-(4-((dimethylamino)methyl)phenylcarbamoyl)propan-2-yloxy)-N-((tetrahydrofuran-2-yl)methyl)benzamide] displayed an EC50 in experiment [1] of less than 10 µM. In experiment [3], the AC50 was less than 10 µM.
`CC(C)(Oc1ccccc1C(=O)NCC1CCCO1)C(=O)NC1CCOCC1` (stereo not shown) [Compound 35, 2-[1,1-dimethyl-2-oxo-2-(tetrahydropyran-4-ylamino)ethoxy]-N-(tetrahydrofuran-2-ylmethyl)benzamide]: in experiment [1], the 50% effective concentration (EC50) is less than 10 µM. Further, the AC50 in experiment [3] was less than 10 µM.
Regarding `CC(C)(Oc1ccccc1C(=O)NCC1CCCO1)C(=O)NC1CCCCC1` (stereo not shown) [Compound 36, 2-[2-(cyclohexylamino)-1,1-dimethyl-2-oxo-ethoxy]-N-(tetrahydrofuran-2-ylmethyl)benzamide], the EC50 in experiment [1] was less than 10 µM. The molecule also showed an AC50 in experiment [3] of less than 10 µM.
`CC(C)(Oc1ccc(F)cc1C(=O)NCC1CCO1)C(=O)NC1CCC(F)(F)CC1` (stereo not shown) [Compound 38, 2-[2-[(4,4-difluorocyclohexyl)amino]-1,1-dimethyl-2-oxo-ethoxy]-5-fluoro-N-(oxetan-2-ylmethyl)benzamide] gave an EC50 in experiment [1] of less than 10 µM. Moreover, in experiment [3], the AC50 was less than 10 µM.
In experiment [1], `CC1(C)CCC(NC(=O)C(C)(C)Oc2ccc(F)cc2C(=O)NCC2CCO2)CO1` (stereo not shown) [Compound 39, 2-[2-[(6,6-dimethyltetrahydropyran-3-yl)amino]-1,1-dimethyl-2-oxo-ethoxy]-5-fluoro-N-(oxetan-2-ylmethyl)benzamide] returned an EC50 of less than 10 µM. Moreover, the AC50 in experiment [3] is less than 10 µM.
As for `O=C(NCC1CCO1)c1cccc2c1CN(C(=O)Nc1ccc(C(F)(F)F)cc1)C2` (stereo not shown) [Compound 40, N4-(oxetan-2-ylmethyl)-N2-[4-(trifluoromethyl)phenyl]isoindoline-2,4-dicarboxamide], in experiment [1], the 50% effective concentration (EC50) is less than 10 µM. This molecule displayed an AC50 in experiment [3] of less than 10 µM.
The molecule `O=C(NCC1CCO1)c1cccc2c1CN(C(=O)NC1CCC(F)(F)CC1)C2` (stereo not shown) [Compound 41, N2-(4,4-difluorocyclohexyl)-N4-(oxetan-2-ylmethyl)isoindoline-2,4-dicarboxamide] yielded an EC50 in experiment [1] of less than 10 µM. This molecule returned an AC50 in experiment [3] of less than 10 µM.
In experiment [1], `COc1ccc(NC(=O)N2Cc3cccc(C(=O)NCC4CCO4)c3C2)cc1Cl` (stereo not shown) [Compound 42, N2-(3-chloro-4-methoxyphenyl)-N4-(oxetan-2-ylmethyl) isoindoline-2,4-dicarboxamide] registered an EC50 of less than 10 µM. The same molecule yielded an AC50 in experiment [3] of less than 10 µM.
Consider `COc1ccc(NC(=O)N2Cc3cccc(C(=O)NCC4CCO4)c3C2)c(Cl)c1` (stereo not shown) [Compound 43, N2-(2-chloro-4-methoxyphenyl)-N4-(oxetan-2-ylmethyl)isoindoline-2,4-dicarboxamide], for which, in experiment [1], the EC50 was less than 10 µM. In addition, the AC50 in experiment [3] lay within 10 to 100 µM.
For `CNc1ccc(NC(=O)c2nc3cc(F)cc(C(=O)NCC4CCO4)c3o2)cc1` (stereo not shown) [Compound 44, 5-fluoro-N2-(4-(methylamino)phenyl)-N7-(oxetan-2-ylmethyl)benzo[d]oxazole-2,7-dicarboxamide] the same measures were less than 10 µM and less than 10 µM.
`COc1ccc(NC(=O)c2nc3cc(F)cc(C(=O)NCC4CCO4)c3o2)c(Cl)c1` (stereo not shown) [Compound 45, N2-(2-chloro-4-methoxyphenyl)-5-fluoro-N7-(oxetan-2-ylmethyl)benzo[d]oxazole-2,7-dicarboxamide]: the EC50 in experiment [1] was less than 10 µM. The same molecule returned an AC50 in experiment [3] of less than 10 µM.
Regarding `COc1ccc(NC(=O)C(C)(C)Oc2ccc(F)cc2C(NCC2CCO2)C(F)(F)F)cc1` (stereo not shown) [Compound 46, 2-(4-fluoro-2-(2,2,2-trifluoro-1-((oxetan-2-ylmethyl)amino)ethyl)phenoxy)-N-(4-methoxyphenyl)-2-methylpropanamide], the half-maximal effective concentration (EC50) in experiment [1] is less than 10 µM. The molecule further came in with an AC50 in experiment [3] of less than 10 µM.
As to `O=C(Nc1ccc(OCF)cc1)c1nc2cc(F)cc(C(=O)NCC3CCO3)c2o1` (stereo not shown) [Compound 47, 5-fluoro-N2-[4-(fluoromethoxy)phenyl]-N7-(oxetan-2-ylmethyl)-1,3-benzoxazole-2,7-dicarboxamid], the EC50 in experiment [1] was less than 10 µM. The same molecule registered an AC50 in experiment [3] of less than 10 µM.
In the case of `COc1ccc(NC(=O)c2nc3cc(F)cc(C(=O)NCC4CCCO4)c3o2)cc1` (stereo not shown) [Compound 48, 5-fluoro-N2-(4-methoxyphenyl)-N7-(tetrahydrofuran-2-ylmethyl)-1,3-benzoxazole-2,7-dicarboxamide], in experiment [1], the EC50 was less than 10 µM. The molecule further had an AC50 in experiment [3] of less than 10 µM.
`O=C(Nc1ccc(OC(F)(F)F)cc1)c1nc2cc(F)cc(C(=O)NCC3CC(F)CO3)c2o1` (stereo not shown) [Compound 49, 5-fluoro-N7-[(4-fluorotetrahydrofuran-2-yl)methyl]-N2-[4-(trifluoromethoxy)phenyl]-1,3-benzoxazole-2,7-dicarboxamide]: in experiment [1], the EC50 is less than 10 µM. Besides, the AC50 in experiment [3] is less than 10 µM.
Take `COc1ccc(NC(=O)c2ncc(CC(=O)NCC3CCO3)o2)cc1` (stereo not shown) [Compound 50, N-(4-methoxyphenyl)-5-(2-((oxetan-2-ylmethyl)amino)-2-oxoethyl)oxazole-2-carboxamide]: in experiment [1], the EC50 was less than 10 µM. This molecule also came in with an AC50 in experiment [3] of less than 10 µM.
